# Experimental data from patent US11840686B2, “Modulation of prekallikrein (PKK) expression” (Ionis Pharmaceuticals, Inc., priority 2013, dated 2023).
# Strand notation (5' to 3'): a small letter for the sugar, then the base; units joined by * are phosphorothioate-linked, units joined directly phosphodiester-linked; [ ] holds rarer units or linkages, { } end groups; capitals alone tell only the bases. e = 2'-O-(2-methoxyethyl) (MOE); [5mC] = 5-methylcytosine; d = 2'-deoxy (DNA)
# System: human PKK mRNA
# Experiment: Antisense inhibition of human PKK mRNA in HepaRG cells, 3,000 nM (Example 1)
# Assay type: cell-based
# Conditions: relative to untreated control cells
# Summary of the method: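 Values give percent PKK mRNA reduction relative to untreated controls, normalised to RIBOGREEN total RNA. mRNA was quantified by real-time PCR (RTS3454) about 24 h after electroporation. Each 20-mer MOE gapmer was delivered at 3,000 nM into 20,000 HepaRG cells per well.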
# [1] = Table 4, HepaRG cells, electroporation with 3,000 nM antisense oligonucleotide, approx. 24 hours, PKK mRNA by RT-PCR (RTS3454)
# [2] = Table 3, HepaRG cells, electroporation with 3,000 nM antisense oligonucleotide, approx. 24 hours, PKK mRNA by RT-PCR (RTS3454)
# [3] = Table 2, PKK mRNA, HepaRG cells, 3,000 nM, electroporation, ~24 h
# [4] = Table 1, PKK mRNA, HepaRG cells, 3,000 nM, electroporation, ~24 h
substance,measurement,setting,value
531161 (antisense e[5mC]*eA*eG*eA*e[5mC]*dA*d[5mC]*d[5mC]*dT*dT*d[5mC]*dT*dT*d[5mC]*dA*e[5mC]*eA*eA*eG*eG) [compound 531161],% inhibition,[1],40%
531158 (antisense eA*e[5mC]*e[5mC]*eT*eT*dA*d[5mC]*dA*dA*dG*d[5mC]*dA*dT*d[5mC]*dT*eT*eT*eT*e[5mC]*e[5mC]) [compound 531158],% inhibition,[2],41%
531115 (antisense eT*e[5mC]*e[5mC]*eT*eA*dA*dA*dT*dA*dG*dG*dA*dA*d[5mC]*dA*eA*eA*eG*eT*eA) [compound 531115],% inhibition,[2],0%
531093 (eT*eT*e[5mC]*eT*e[5mC]*d[5mC]*dT*dG*dG*d[5mC]*dT*d[5mC]*dA*dG*dA*eA*eG*e[5mC]*eT*e[5mC]; antisense) [compound 531093],% inhibition,[2],60%
531237 (eG*eT*eG*eG*eA*dA*dT*dG*dT*d[5mC]*dA*dT*dG*dG*d[5mC]*eA*eA*eT*eT*eT; antisense) [compound 531237],% inhibition,[1],56%
531112 (antisense eA*eT*eG*eT*eA*dT*dG*dA*dT*dT*d[5mC]*dT*dA*dA*dG*eA*eA*e[5mC]*eT*eT) [compound 531112],% inhibition,[2],14%
531194 (e[5mC]*eT*e[5mC]*eA*e[5mC]*dA*dA*dT*dT*d[5mC]*dT*dG*dT*dA*dA*eG*eG*eG*eA*eA; antisense) [compound 531194],% inhibition,[1],64%
531119 (antisense eT*eA*eA*eA*e[5mC]*dT*d[5mC]*dT*dT*dA*d[5mC]*dA*dT*dT*dT*eA*eT*eA*eG*eA) [compound 531119],% inhibition,[2],0%
531046 (antisense eG*eA*eT*eA*eT*d[5mC]*dT*dT*dT*dT*d[5mC]*dT*dG*dG*d[5mC]*eA*eT*eT*e[5mC]*eT) [compound 531046],% inhibition,[3],54%
531107 (antisense eT*e[5mC]*eA*eA*e[5mC]*dT*d[5mC]*dA*d[5mC]*dA*d[5mC]*d[5mC]*dT*dG*dA*e[5mC]*e[5mC]*eT*eA*eA) [compound 531107],% inhibition,[2],30%
531045 (antisense eT*eT*eT*e[5mC]*eT*dG*dG*d[5mC]*dA*dT*dT*d[5mC]*dT*dT*d[5mC]*eA*eT*eT*eT*eG) [compound 531045],% inhibition,[3],37%
531175 (antisense eT*eA*e[5mC]*eT*e[5mC]*dA*dG*dG*dA*dA*dA*dT*dT*dA*dG*eA*eA*eT*eA*eT) [compound 531175],% inhibition,[1],25%
531111 (antisense e[5mC]*eT*eT*e[5mC]*eT*d[5mC]*d[5mC]*dT*dG*dG*d[5mC]*dT*d[5mC]*dA*dG*eA*eA*eG*e[5mC]*eT) [compound 531111],% inhibition,[2],68%
530993 (e[5mC]*eA*eA*eA*e[5mC]*dA*dT*dT*d[5mC]*dA*d[5mC]*dT*d[5mC]*d[5mC]*dT*eT*eT*eA*eA*e[5mC]; antisense) [compound 530993],% inhibition,[4],30%
531153 (antisense e[5mC]*eT*eA*eG*eA*dA*dG*d[5mC]*dA*dA*dT*dA*dT*dT*dT*eA*eA*eA*eG*e[5mC]) [compound 531153],% inhibition,[2],0%
530953 (antisense eG*eA*eA*eA*eA*d[5mC]*dT*dG*dA*dA*dT*dA*dG*d[5mC]*dA*eA*eA*e[5mC]*eA*e[5mC]) [compound 530953],% inhibition,[4],7%
530955 (antisense e[5mC]*eA*eA*eA*e[5mC]*d[5mC]*dT*dT*dT*dT*d[5mC]*dT*d[5mC]*d[5mC]*dA*eT*eG*eT*e[5mC]*eA) [compound 530955],% inhibition,[4],55%
531091 (eT*e[5mC]*eA*eG*e[5mC]*d[5mC]*d[5mC]*dA*dA*dT*dG*dT*d[5mC]*d[5mC]*dT*eA*eA*e[5mC]*e[5mC]*eT; antisense) [compound 531091],% inhibition,[2],35%
531205 (eA*e[5mC]*eA*eT*eT*dT*dT*dT*dT*dA*dA*dG*dT*dA*d[5mC]*eA*eG*eG*eA*eA; antisense) [compound 531205],% inhibition,[1],0%
531001 (eA*eG*eA*eT*eA*dA*dT*d[5mC]*dT*dT*dA*dA*dG*dA*dA*eA*e[5mC]*eA*e[5mC]*eT; antisense) [compound 531001],% inhibition,[4],44%
531113 (antisense eA*eA*e[5mC]*eA*eG*dA*d[5mC]*dA*d[5mC]*dA*dT*dT*dA*dT*dT*eT*eA*eT*eA*eT) [compound 531113],% inhibition,[2],0%
531139 (antisense eT*e[5mC]*eA*e[5mC]*eT*dA*dA*dA*dA*d[5mC]*dA*dA*dA*dA*dA*eT*eA*e[5mC]*eT*eT) [compound 531139],% inhibition,[2],0%
531105 (e[5mC]*eT*e[5mC]*e[5mC]*eT*d[5mC]*d[5mC]*d[5mC]*d[5mC]*dA*dG*dG*d[5mC]*dT*dG*e[5mC]*eT*e[5mC]*e[5mC]*eT; antisense) [compound 531105],% inhibition,[2],16%
531221 (eA*eA*eG*eG*eG*dA*dT*dT*dT*dA*dA*dA*dA*dT*dT*eT*eT*eT*eA*eT; antisense) [compound 531221],% inhibition,[1],0%
530937 (antisense eT*eA*eA*eG*eT*dT*dG*d[5mC]*dT*dT*dG*d[5mC]*dT*dT*dG*eA*eA*eT*eA*eA) [compound 530937],% inhibition,[4],0%
531096 (e[5mC]*e[5mC]*e[5mC]*eA*eA*dT*dT*d[5mC]*dT*dT*dA*dG*dT*d[5mC]*d[5mC]*eT*eT*eT*eA*eA; antisense) [compound 531096],% inhibition,[2],45%
531024 (eT*eT*eT*eA*eT*dT*dT*dG*dT*dG*dA*dG*dA*dA*dA*eG*eG*eT*eG*eT; antisense) [compound 531024],% inhibition,[3],69%
530958 (antisense eT*eT*eA*eA*eA*dA*dT*dT*dG*dA*d[5mC]*dT*d[5mC]*d[5mC]*dT*e[5mC]*eT*e[5mC]*eA*eT) [compound 530958],% inhibition,[4],60%
531012 (eT*e[5mC]*eT*e[5mC]*e[5mC]*d[5mC]*d[5mC]*dA*dA*dG*dA*dA*dG*dA*dG*eT*eT*eT*eG*eT; antisense) [compound 531012],% inhibition,[3],48%
531053 (antisense eA*eG*e[5mC]*eA*e[5mC]*dA*dG*dA*d[5mC]*d[5mC]*dA*dT*d[5mC]*d[5mC]*dG*eT*eT*eG*eG*eG) [compound 531053],% inhibition,[3],49%
531134 (antisense eT*eT*eA*e[5mC]*e[5mC]*d[5mC]*dA*dT*d[5mC]*dA*dA*dA*dG*d[5mC]*dA*eG*eT*eG*eG*eG) [compound 531134],% inhibition,[2],6%
531166 (antisense eA*eG*eA*e[5mC]*eA*dG*dT*dA*dA*dA*d[5mC]*dA*dA*dA*dA*eT*e[5mC]*eA*eG*eG) [compound 531166],% inhibition,[1],12%
530969 (antisense eG*eT*eG*e[5mC]*e[5mC]*dA*d[5mC]*dT*dT*dT*d[5mC]*dA*dG*dA*dT*eG*eT*eT*eT*eT) [compound 530969],% inhibition,[4],0%
530989 (eT*e[5mC]*eT*e[5mC]*e[5mC]*dT*d[5mC]*d[5mC]*dA*dA*dA*dG*dT*d[5mC]*dA*eA*e[5mC]*eT*e[5mC]*e[5mC]; antisense) [compound 530989],% inhibition,[4],28%
531080 (e[5mC]*eA*eT*eT*eG*dT*d[5mC]*d[5mC]*dT*d[5mC]*dA*dG*d[5mC]*dA*dG*e[5mC]*eT*e[5mC]*eT*eG; antisense) [compound 531080],% inhibition,[3],55%
531031 (antisense eT*eT*eT*eG*eG*dA*dA*dT*dT*d[5mC]*dA*dG*dT*dG*dT*eA*eA*eT*eT*e[5mC]) [compound 531031],% inhibition,[3],59%
530942 (antisense e[5mC]*eA*eG*eG*eA*dA*dA*d[5mC]*dT*dG*dT*dA*dG*d[5mC]*dA*eA*eA*e[5mC]*eA*eA) [compound 530942],% inhibition,[4],22%
530964 (antisense e[5mC]*eT*eT*e[5mC]*eA*dG*dT*dG*dA*dG*dA*dA*dT*d[5mC]*d[5mC]*eA*eG*eA*eT*eT) [compound 530964],% inhibition,[4],44%
531122 (antisense eT*eA*eA*e[5mC]*eA*dA*dA*dA*dA*dT*dG*d[5mC]*d[5mC]*dT*dT*eG*eT*eG*e[5mC]*e[5mC]) [compound 531122],% inhibition,[2],33%
531023 (e[5mC]*eT*eT*eT*eT*dG*dT*dA*dA*dT*dG*dT*d[5mC]*dT*dG*eA*e[5mC]*eA*eG*eA; antisense) [compound 531023],% inhibition,[3],71%
531140 (antisense eT*e[5mC]*eT*eT*e[5mC]*d[5mC]*dA*dG*dG*d[5mC]*d[5mC]*dA*dA*d[5mC]*d[5mC]*eA*e[5mC]*e[5mC]*eT*eT) [compound 531140],% inhibition,[2],22%
530960 (antisense eA*eT*eT*e[5mC]*eT*dT*d[5mC]*dA*dA*d[5mC]*dA*d[5mC]*dT*dG*d[5mC]*eT*eA*eA*e[5mC]*e[5mC]) [compound 530960],% inhibition,[4],58%
530984 (antisense eT*eT*eA*eG*eA*dA*dT*dG*dG*d[5mC]*dA*dG*dG*dG*dT*eT*e[5mC]*eA*eG*eG) [compound 530984],% inhibition,[4],25%
531050 (antisense eT*eT*eG*eG*eG*dT*dT*dA*dT*dT*dT*dT*dA*dT*dA*eA*eT*e[5mC]*eT*eT) [compound 531050],% inhibition,[3],18%
531059 (antisense eA*e[5mC]*eA*eT*eT*d[5mC]*d[5mC]*dA*dT*dT*dG*dT*dG*dT*dT*eT*eG*e[5mC]*eA*eA) [compound 531059],% inhibition,[3],55%
530983 (antisense eA*eT*eG*eG*e[5mC]*dA*dG*dG*dG*dT*dT*d[5mC]*dA*dG*dG*eT*eA*eA*eA*eG) [compound 530983],% inhibition,[4],9%
531192 (eG*eA*eG*eT*eG*d[5mC]*d[5mC]*dA*dT*d[5mC]*dT*dT*d[5mC]*dT*d[5mC]*eT*eG*e[5mC]*eA*e[5mC]; antisense) [compound 531192],% inhibition,[1],61%
